Experimental findings from paper PMC5884652, “New antimicrobial peptide kills drug-resistant pathogens without detectable resistance” (Oncotarget, 2018) are described below.

Series [1] deals with Salmonella typhimurium KCTC 1926. Format: cell-based. From the text:
(§1) The method for peptide synthesis has been described in detail previously. E. coli ATCC 25922 (LB media), P. aeruginosa ATCC 15692 (NB+0.5% NaCl media), Listeria monocytogenes ATCC 3710 (LB media), Staphylococcus epidermidis ATCC 12228 (LB media), and S. aureus ATCC 29213 (TSB media) were obtained from the American Type Culture Collection (Manassas, VA, USA). […] E. coli CCARM 1238 was received from the Culture Collection of Antibiotic Resistant Microbes at Seoul Women’s University, Korea. Drug-resistant P. aeruginosa 3543, 3904, 3547, and 4007 and S. aureus 3126, 0027, 5157, 1635, 4761, 5159, 3359, 2122, 1630, 1870, 3511, 5156, and 3518 were resistant strains isolated from patients with otitis media in a Chonnam National University’s hospital.
(§2) The antibacterial activities of AMPs (melittin, clavaspirin, and its analogs) and conventional antibiotic drugs (erythromycin, gentamicin, ampicillin, and piperacidin) were determined using microdilution assays. Bacterial cells were cultured at 37° C in appropriate culture media at pH 5.5 or pH 7.4 until collection during the mid-log phase and suspended in 10 mM sodium phosphate buffer (pH 5.5 or pH 7.4) supplemented with 10% culture medium. Thereafter, 2× serial dilutions of each peptide (0.25–128 μM) or antibiotic (0.25–256 μM) were added to sterile 96-well plates, and aliquots of cell suspension (5 × 10^5 colony forming units (cfu)/mL) were seeded into each well. The samples were then incubated at 37° C for 24 h. At the end of the incubation, the minimum inhibitory concentrations (MICs) of the peptides were determined using a VERSA Max microplate reader (Molecular Devices Co., Sunnyvale, CA, USA) at a wavelength of 600 nm. […] MIC values were calculated as the mean of 3 independent experiments conducted in triplicate.

Series [2] deals with Proteus vulgaris KCTC 2433. Format: cell-based.
Excerpt: as §1, §2

Series [3] has as its system HaCaT (human keratinocyte) cells. The experiment in a line: Cytotoxicity, MTT assay. Format: cell-based. As to conditions: DMEM containing 10% FBS and 1% PS, 24 h, 37° C; for EC50: read-out: EC50 (effective concentration in HaCaT cells). On the procedure:
To examine the cytotoxic effects of the peptides, HaCaT (human keratinocyte) cells were cultured in Dulbecco’s modified Eagle’s medium (DMEM) supplemented with antibiotics (100 U/ml penicillin and 100 μg/ml streptomycin) and 10% fetal calf serum at 37° C in a humidified chamber under a 5% CO2 atmosphere. Growth inhibition was evaluated using 3-(4, 5-dimethylthizol-2-yl)-2, 5-diphenyltetrazolium bromide (MTT) assays to measure cell viability. After cells were seeded into a 96-well plate at a density of 2 × 10^4/well and incubated for 24 h, twofold serial dilutions of each peptide in DMEM were added to the wells, and the cells were incubated for an additional 24 h at 37° C. Thereafter, 10 μl of MTT (5 mg/ml) was added to each well, and the plate was incubated for 4 h. The supernatants were then removed, and 50 μl of DMSO was added to each well to dissolve any remaining precipitate. Finally, the absorbance at 570 nm was measured using a microtiter reader.
On the technique in general: Formazan colour is commonly taken as a measure of viable cells.

The subject of series [4] is E. coli ATCC 25922. Format: cell-based, Escherichia coli.
Excerpt: The method for peptide synthesis has been described in detail previously. E. coli ATCC 25922 (LB media), P. aeruginosa ATCC 15692 (NB+0.5% NaCl media), Listeria monocytogenes ATCC 3710 (LB media), Staphylococcus epidermidis ATCC 12228 (LB media), and S. aureus ATCC 29213 (TSB media) were obtained from the American Type Culture Collection (Manassas, VA, USA). Bacillus subtilis KCTC 1998 (LB media), Salmonella typhimurium KCTC 1926 (NB media), and Proteus vulgaris KCTC 2433 (NB media) were obtained from the Korean Collection for Type Cultures (Jeollabuk-do, Korea). E. coli CCARM 1238 was received from the Culture Collection of Antibiotic Resistant Microbes at Seoul Women’s University, Korea. Drug-resistant P. aeruginosa 3543, 3904, 3547, and 4007 and S. aureus 3126, 0027, 5157, 1635, 4761, 5159, 3359, 2122, 1630, 1870, 3511, 5156, and 3518 were resistant strains isolated from patients with otitis media in a Chonnam National University’s hospital.
as §2

For series [5], the system named is S. aureus. The experiment in a line: SYTOX-Green uptake. The note with it: S. aureus 2 × 10^7 cfu/mL, 1 μM SYTOX-Green, 10 mM sodium phosphate buffer. Format: cell-based. On the procedure: S. aureus CCARM 259237 cells were grown to the mid-log phase and suspended in 10 mM sodium phosphate buffer supplemented with 10% culture medium at pH 7.4 and 37° C, and then washed and suspended (2 × 10^7 cfu/mL) in 10 mM sodium phosphate buffer (pH 7.4) and incubated with 1 μM SYTOX-Green for 20 min in the dark. After the addition of peptides at the appropriate concentrations (1/2 MIC, MIC, 2× MIC, and/or 4× MIC), time-dependent increases in fluorescence, which is caused by the binding of the cationic dye to intracellular nucleic acids, was monitored using a Perkin-Elmer LS55 fluorometer (excitation wavelength, 485 nm; emission wavelength, 520 nm).

The subject of series [6] is E. coli LPS. The series is described as follows: Peptide-LPS binding affinity assay (dansyl polymyxin B). The note with it: LPS 9 µg, 2.5 μM dansyl polymyxin B, 5 mM HEPES buffer pH 7.4, peptide 0.4 to 4 μM. On the procedure: Lipoteichoic acid (LTA) and lipopolysaccharide (LPS) binding affinity assays were performed using a Perkin-Elmer LS55 fluorometer (Waltham, MA, USA). S. aureus LTA and E. coli LPS (9 µg) were incubated with 2.5 μM dansyl-polymyxin B in 5 mM HEPES buffer for 5–10 min at pH 7.4. The CSP-4 peptide was added in 0.4 μM increments from 0.4 to 4 μM. The increase in fluorescence intensity was assessed using a spectrofluorometer at an excitation wavelength of 340 nm and an emission wavelength of 482 nm (Perkin-Elmer LS55).

The subject of series [7] is S. aureus ATCC 29213. The experiment in a line: microbe, parasite or virus in culture. On the procedure:
To determine the MICs of CSP-4, a single colony of S. aureus ATCC 29213 was cultured at 37° C in tryptic soy broth, as well as daptomycin and linezolid, which served as commercial antibiotic positive controls. […] For each agent, the MIC was determined daily for 29 days at pH 5.5 and/or for 8 days at pH 7.4 using cells from wells containing half the MIC (1/2 MIC well). […] All MICs were determined in duplicate.

The mark [8] stands for this setting: pH 5.5 (I), 10 mM sodium phosphate buffer, 10% LB, 37° C, 24 h, mean of 3 experiments.
Setting [9] is: pH 7.4 (II), 10 mM sodium phosphate buffer, 10% LB, 37° C, 24 h, mean of 3 experiments.

Like-named read-outs stand apart in the source and are kept apart here. Ends that are not written are not given here.

As to FKRFIGSVKHGIGHLVHHIGVAL-NH2 [CSP-3], the “MIC, S. typhimurium” value was determined as 64 µM in series [1] (KCTC 1926, 24 h, pH 5.5) and 4 µM in series [1] (KCTC 1926, 24 h, pH 7.4). The “MIC, P. vulgaris” value is 4 µM in series [2] (KCTC 2433, 24 h, pH 5.5) and 8 µM in series [2] (KCTC 2433, 24 h, pH 7.4). The “EC10 (effective concentration in HaCaT cells)” value in series [3] is on record as 84. In series [3], the EC50 was 188 µM. Moreover, the “MIC, E. coli” value in series [4] (ATCC 25922, 24 h, pH 5.5) stood at 2 µM; in series [4] (ATCC 25922, 24 h, pH 7.4), 4 µM.

On to FLRFIGSVKHGKGHLVHHIGVAL-NH2 [CSP-4], for which the “MIC, S. typhimurium” value came to 64 µM in series [1] (setting [8]) and 4 µM in series [1] (setting [9]). The “MIC, P. vulgaris” value in series [2] (setting [8]) was 4 µM; in series [2] (setting [9]) it was 8 µM. For the same substance, the “EC10 (effective concentration in HaCaT cells)” value in series [3] is reported as more than 400. In addition, in series [3], the EC50 is more than 400 µM. For the same substance, the “Membrane disruption (SYTOX-Green fluorescence)” value in series [5] is given as “dose-dependent increase in fluorescence intensity”. Besides, the “Binding to LPS (fluorescence of dansyl polymyxin B)” value in series [6] is listed as “dose-dependent increase in fluorescence intensity”. Further, the figures for the “MIC, E. coli” value in series [4] (setting [8]) and in series [4] (setting [9]) were 2 µM and 4 µM, respectively. The “MIC after 29 passages” value in series [7] (after exposure for 29 passages) was determined as 16 µM. The “Increase of MIC” value in series [7] (after exposure for 29 passages, pH not given) is on record as “approximately 2 ×”. Moreover, the “Induction of drug resistance” value in series [7] (exposure for up to 29 passages) is reported as “did not induce drug resistance”.
